# Experimental data published in US12491170B2, “Stable treprostinil prodrugs” (United Therapeutics Corporation, priority 2020, dated 2025).
# Like-named read-outs stand apart in the source and are kept apart here.
# What was measured:
# [1] = Stability in cryopreserved hepatocytes, dog; settings: for AUC: dog
# [2] = Stability in liver microsomes, dog
# [3] = Stability in cryopreserved hepatocytes, human; settings: for AUC: human
# [4] = Stability in human subcutaneous skin homogenate; settings: for AUC: human
# [5] = Stability in liver microsomes, rat
# [6] = rat
# [7] = Stability in cryopreserved hepatocytes, rat; settings: for AUC: rat
# [8] = dog
# [9] = Stability in liver microsomes, human; settings: for AUC: human
smiles,measurement,setting,value
CCCCCC(CCC1C(O)CC2Cc3c(cccc3OCC(=O)O)CC21)OC(=O)COc1ccc(OC(F)(F)F)cc1 (centres unmarked) [LXIV],Trep Concentration (μM) 0 min,[1],0.0196 µM
same,Trep Concentration (μM) 15 min,[1],0.466 µM
same,Trep Concentration (μM) 30 min,[1],0.514 µM
same,Trep Concentration (μM) 60 min,[1],0.485 µM
same,Trep Concentration (μM) 120 min,[1],0.451 µM
same,AUC,[1],54.06 µmol·min/L
same,Trep Concentration 0 min,[2],0.453 µM
same,Trep Concentration 10 min,[2],0.548 µM
same,Trep Concentration 20 min,[2],0.592 µM
same,Trep Concentration 30 min,[2],0.603 µM
same,Trep Concentration 60 min,[2],0.627 µM
same,Trep Concentration (μM) 0 min,[3],0.0116 µM
same,Trep Concentration (μM) 15 min,[3],0.521 µM
same,Trep Concentration (μM) 30 min,[3],0.509 µM
same,Trep Concentration (μM) 60 min,[3],0.458 µM
same,Trep Concentration (μM) 120 min,[3],0.411 µM
same,AUC,[3],52.29 µmol·min/L
same,Trep Concentration 0 min,[4],0 µM
same,Trep Concentration 30 min,[4],0.0793 µM
same,Trep Concentration 60 min,[4],0.155 µM
same,Trep Concentration 120 min,[4],0.283 µM
same,AUC,[4],17.84 µmol·min/L
same,Trep Concentration 0 min,[5],0.803 µM
same,Trep Concentration 10 min,[5],0.882 µM
same,Trep Concentration 20 min,[5],0.91 µM
same,Trep Concentration 30 min,[5],0.902 µM
same,Trep Concentration 60 min,[5],0.753 µM
same,AUC,[6],51.27 µmol·min/L
same,Trep Concentration (μM) 0 min,[7],0.0456 µM
same,Trep Concentration (μM) 15 min,[7],0.374 µM
same,Trep Concentration (μM) 30 min,[7],0.291 µM
same,Trep Concentration (μM) 60 min,[7],0.234 µM
same,Trep Concentration (μM) 120 min,[7],0.206 µM
same,AUC,[7],29.21 µmol·min/L
same,AUC,[8],35.13 µmol·min/L
same,Trep Concentration 0 min,[9],0.911 µM
same,Trep Concentration 10 min,[9],0.752 µM
same,Trep Concentration 20 min,[9],0.667 µM
same,Trep Concentration 30 min,[9],0.596 µM
same,Trep Concentration 60 min,[9],0.351 µM
same,AUC,[9],35.93 µmol·min/L
CCCCCC(CCC1C(O)CC2Cc3c(cccc3OCC(=O)O)CC21)OC(=O)CCC(=O)O (centres unmarked) [XX],Trep Concentration (μM) 0 min,[1],0 µM
same,Trep Concentration (μM) 15 min,[1],0.0459 µM
same,Trep Concentration (μM) 30 min,[1],0.0824 µM
same,Trep Concentration (μM) 60 min,[1],0.136 µM
same,Trep Concentration (μM) 120 min,[1],0.198 µM
same,AUC,[1],14.60 µmol·min/L
same,Trep Concentration 0 min,[2],0.019 µM
same,Trep Concentration 10 min,[2],0.044 µM
same,Trep Concentration 20 min,[2],0.087 µM
same,Trep Concentration 30 min,[2],0.11 µM
same,Trep Concentration 60 min,[2],0.2 µM
same,Trep Concentration (μM) 0 min,[3],0 µM
same,Trep Concentration (μM) 15 min,[3],0.1 µM
same,Trep Concentration (μM) 30 min,[3],0.16 µM
same,Trep Concentration (μM) 60 min,[3],0.246 µM
same,Trep Concentration (μM) 120 min,[3],0.344 µM
same,AUC,[3],26.49 µmol·min/L
same,Trep Concentration 0 min,[4],0 µM
same,Trep Concentration 30 min,[4],0 µM
same,Trep Concentration 60 min,[4],0.019 µM
same,Trep Concentration 120 min,[4],0.03 µM
same,AUC,[4],1.76 µmol·min/L
same,Trep Concentration 0 min,[5],0.12 µM
same,Trep Concentration 10 min,[5],0.24 µM
same,Trep Concentration 20 min,[5],0.29 µM
same,Trep Concentration 30 min,[5],0.38 µM
same,Trep Concentration 60 min,[5],0.54 µM
same,AUC,[6],21.60 µmol·min/L
same,Trep Concentration (μM) 0 min,[7],0.0112 µM
same,Trep Concentration (μM) 15 min,[7],0.441 µM
same,Trep Concentration (μM) 30 min,[7],0.542 µM
same,Trep Concentration (μM) 60 min,[7],0.594 µM
same,Trep Concentration (μM) 120 min,[7],0.609 µM
same,AUC,[7],63.89 µmol·min/L
same,AUC,[8],6.61 µmol·min/L
same,Trep Concentration 0 min,[9],0.048 µM
same,Trep Concentration 10 min,[9],0.087 µM
same,Trep Concentration 20 min,[9],0.092 µM
same,Trep Concentration 30 min,[9],0.1 µM
same,Trep Concentration 60 min,[9],0.16 µM
same,AUC,[9],6.43 µmol·min/L
CCCCCC(CCC1C(O)CC2Cc3c(cccc3OCC(=O)O)CC21)OC(=O)CO (centres unmarked) [XLIV],Trep Concentration (μM) 0 min,[1],0.0501 µM
same,Trep Concentration (μM) 15 min,[1],0.587 µM
same,Trep Concentration (μM) 30 min,[1],0.545 µM
same,Trep Concentration (μM) 60 min,[1],0.475 µM
same,Trep Concentration (μM) 120 min,[1],0.404 µM
same,AUC,[1],54.94 µmol·min/L
same,Trep Concentration 0 min,[2],0.913 µM
same,Trep Concentration 10 min,[2],0.884 µM
same,Trep Concentration 20 min,[2],0.828 µM
same,Trep Concentration 30 min,[2],0.894 µM
same,Trep Concentration 60 min,[2],0.899 µM
same,Trep Concentration (μM) 0 min,[3],0.0377 µM
same,Trep Concentration (μM) 15 min,[3],0.406 µM
same,Trep Concentration (μM) 30 min,[3],0.534 µM
same,Trep Concentration (μM) 60 min,[3],0.553 µM
same,Trep Concentration (μM) 120 min,[3],0.506 µM
same,AUC,[3],58.45 µmol·min/L
same,Trep Concentration 0 min,[4],0 µM
same,Trep Concentration 30 min,[4],0.0277 µM
same,Trep Concentration 60 min,[4],0.0597 µM
same,Trep Concentration 120 min,[4],0.106 µM
same,AUC,[4],6.70 µmol·min/L
same,Trep Concentration 0 min,[5],0.0772 µM
same,Trep Concentration 10 min,[5],0.114 µM
same,Trep Concentration 20 min,[5],0.157 µM
same,Trep Concentration 30 min,[5],0.197 µM
same,Trep Concentration 60 min,[5],0.284 µM
same,AUC,[6],11.30 µmol·min/L
same,Trep Concentration (μM) 0 min,[7],0.0352 µM
same,Trep Concentration (μM) 15 min,[7],0.186 µM
same,Trep Concentration (μM) 30 min,[7],0.307 µM
same,Trep Concentration (μM) 60 min,[7],0.393 µM
same,Trep Concentration (μM) 120 min,[7],0.514 µM
same,AUC,[7],43.07 µmol·min/L
same,AUC,[8],53.05 µmol·min/L
same,Trep Concentration 0 min,[9],0.624 µM
same,Trep Concentration 10 min,[9],0.632 µM
same,Trep Concentration 20 min,[9],0.549 µM
same,Trep Concentration 30 min,[9],0.52 µM
same,Trep Concentration 60 min,[9],0.307 µM
same,AUC,[9],29.94 µmol·min/L
CCCCCC(CCC1C(O)CC2Cc3c(cccc3OCC(=O)O)CC21)OC(=O)OCC (centres unmarked) [XVI],Trep Concentration 0 min,[2],0.66 µM
same,Trep Concentration 10 min,[2],0.95 µM
same,Trep Concentration 20 min,[2],1.01 µM
same,Trep Concentration 30 min,[2],1.01 µM
same,Trep Concentration 60 min,[2],0.92 µM
same,Trep Concentration 0 min,[4],0 µM
same,Trep Concentration 30 min,[4],0.17 µM
same,Trep Concentration 60 min,[4],0.31 µM
same,Trep Concentration 120 min,[4],0.53 µM
same,AUC,[4],34.95 µmol·min/L
same,Trep Concentration 0 min,[5],0.98 µM
same,Trep Concentration 10 min,[5],0.97 µM
same,Trep Concentration 20 min,[5],0.92 µM
same,Trep Concentration 30 min,[5],0.91 µM
same,Trep Concentration 60 min,[5],0.86 µM
same,AUC,[6],54.90 µmol·min/L
same,AUC,[8],56.90 µmol·min/L
same,Trep Concentration 0 min,[9],0.69 µM
same,Trep Concentration 10 min,[9],0.6 µM
same,Trep Concentration 20 min,[9],0.49 µM
same,Trep Concentration 30 min,[9],0.41 µM
same,Trep Concentration 60 min,[9],0.25 µM
same,AUC,[9],26.30 µmol·min/L
CCCCCC(CCC1C(O)CC2Cc3c(cccc3OCC(=O)O)CC21)OC(=O)N1CCCCC1 (centres unmarked) [XIX],Trep Concentration 0 min,[2],0 µM
same,Trep Concentration 10 min,[2],0 µM
same,Trep Concentration 20 min,[2],0 µM
same,Trep Concentration 30 min,[2],0 µM
same,Trep Concentration 60 min,[2],0 µM
same,Trep Concentration 0 min,[4],0 µM
same,Trep Concentration 30 min,[4],0 µM
same,Trep Concentration 60 min,[4],0 µM
same,Trep Concentration 120 min,[4],0 µM
same,AUC,[4],0.00 µmol·min/L
same,Trep Concentration 0 min,[5],0 µM
same,Trep Concentration 10 min,[5],0 µM
same,Trep Concentration 20 min,[5],0 µM
same,Trep Concentration 30 min,[5],0 µM
same,Trep Concentration 60 min,[5],0 µM
same,AUC,[6],0.00 µmol·min/L
same,AUC,[8],0.00 µmol·min/L
same,Trep Concentration 0 min,[9],0 µM
same,Trep Concentration 10 min,[9],0 µM
same,Trep Concentration 20 min,[9],0.014 µM
same,Trep Concentration 30 min,[9],0.018 µM
same,Trep Concentration 60 min,[9],0.022 µM
same,AUC,[9],0.83 µmol·min/L
CCCCC[C@@H](CC[C@@H]1[C@H]2Cc3cccc(OCC(=O)O)c3C[C@H]2C[C@H]1O)OC(=O)[C@@H](N)C(C)C [XXIX],Trep Concentration 0 min,[2],0 µM
same,Trep Concentration 10 min,[2],0.012 µM
same,Trep Concentration 20 min,[2],0.0177 µM
same,Trep Concentration 30 min,[2],0.025 µM
same,Trep Concentration 60 min,[2],0.0334 µM
same,Trep Concentration 0 min,[4],0 µM
same,Trep Concentration 30 min,[4],0.0333 µM
same,Trep Concentration 60 min,[4],0.0488 µM
same,Trep Concentration 120 min,[4],0.0759 µM
same,AUC,[4],5.47 µmol·min/L
same,Trep Concentration 0 min,[5],0 µM
same,Trep Concentration 10 min,[5],0.00463 µM
same,Trep Concentration 20 min,[5],0.00443 µM
same,Trep Concentration 30 min,[5],0.0102 µM
same,Trep Concentration 60 min,[5],0.0178 µM
same,AUC,[6],0.56 µmol·min/L
same,AUC,[8],1.30 µmol·min/L
same,Trep Concentration 0 min,[9],0.00482 µM
same,Trep Concentration 20 min,[9],0.0168 µM
same,Trep Concentration 30 min,[9],0.0173 µM
same,Trep Concentration 60 min,[9],0.0265 µM
same,AUC,[9],1.05 µmol·min/L
CCCCCC(O)CCC1C(OC)CC2Cc3c(cccc3OCC(=O)O)CC21 (centres unmarked) [LIII],Trep Concentration 0 min,[2],0.0189 µM
same,Trep Concentration 10 min,[2],0.0224 µM
same,Trep Concentration 20 min,[2],0.0209 µM
same,Trep Concentration 60 min,[2],0.0222 µM
same,Trep Concentration 0 min,[4],0.0159 µM
same,Trep Concentration 30 min,[4],0.0165 µM
same,Trep Concentration 60 min,[4],0.0165 µM
same,AUC,[4],1.99 µmol·min/L
same,Trep Concentration 0 min,[5],0.0196 µM
same,Trep Concentration 10 min,[5],0.0177 µM
same,Trep Concentration 20 min,[5],0.024 µM
same,Trep Concentration 30 min,[5],0.0274 µM
same,Trep Concentration 60 min,[5],0.0271 µM
same,AUC,[6],1.47 µmol·min/L
same,AUC,[8],1.33 µmol·min/L
same,Trep Concentration 0 min,[9],0.0216 µM
same,Trep Concentration 10 min,[9],0.0336 µM
same,Trep Concentration 20 min,[9],0.0343 µM
same,Trep Concentration 30 min,[9],0.0459 µM
same,Trep Concentration 60 min,[9],0.0354 µM
same,AUC,[9],2.24 µmol·min/L
